Source: patent publication US9789117B2, “Use of sigma ligands in diabetes type-2 associated pain” (LABORATORIOS DEL DR. ESTEVE, S.A., priority 2011, dated 2017)
“Also recorded” adds a separate entry of the source. Structures can show the parent of a compound that is named as a salt.

Experiments:
Type in all cases: in vivo, rat
[1] = system: male ZDF (Zucker Diabetic Fatty) rats; assay: Plantar test (thermal hyperalgesia, withdrawal latency); settings: for effect on thermal hyperalgesia (plantar test), acute treatment: single 64 mg/kg i.p., compared with week 7 baseline, 64 mg/kg
Protocol: (§1) The example 1 was dissolved in physiological saline (0.9%) and pH was corrected to 5 with NaOH. The compound was administered by the intraperitoneal (i.p.) route. The doses of drug employed in the present study were 64 mg/kg i.p. for acute administration and 25 mg/kg i.p. twice a day (BID) for the chronic treatment during 14 days. The compound and the saline (vehicle) adjusted at pH 5, were administered in a volume of 0.5 ml.
(§2) All experimental protocols were performed in strict accordance with the EC regulation for care and use of experimental animals (86/609/EEC). Studies were performed with male ZDF (Zucker Diabetic Fatty) rats (ZDF/Gmi, fa/fa) obtained from Charles Rivers Genetic Models Inc. 6 week old rats were housed in groups of two in standard transparent cages, under a 12 light-dark cycle, and animals were maintained on Purina 5008 (16.7 kcal % fat) diet and sterile tap water, available ad libitum. Nonfasting blood glucose levels and body weight were regularly monitored.
(§3) Acute example 1: animals received one injection (0.5 ml) of example 1 (64 mg/kg i.p.) 30 minutes before behavioral testing (n=8).
(§4) Chronic example 1: animals received one injection (0.5 ml) of example 1 (25 mg/kg BID, for 14 days) (n=8). Behavioral tests were performed once a week during the treatment, and one week after the last administration they were sacrificed and electrophysiological and cardiovascular experiments were carried out.
Thermal (heat) hyperalgesia (heat-nociception) was tested using a 37370 plantar test apparatus (Ugo Basile, Comerio VA, Italy). The withdrawal latency from a focused beam of radiant heat applied to the mid plantar surface of the hindpaws was recorded. The intensity of light was adjusted at the start of the experiment such that the control average baseline latencies were about 8 s and a cut-off latency of 30 s was imposed. The withdrawal latency of each paw was measured and the mean value was used for data analysis. The antihyperalgesic effect of the treatment was evidenced as an increase in the withdrawal latency respect to control baseline latencies.
Plantar test results are expressed as the percentage of the mean of thermal latency obtained from both hindpaws.
Data are expresses as mean+standard error mean (SEM). Statistical analysis of drug effects for significant differences between multiple groups were performed by analysis of variance (ANOVA), followed, when appropriate, by post-hoc Newman-Keuls test or Bonferroni Test. P<0.05 was considered as statistically significant.

[2] = system: male ZDF (Zucker Diabetic Fatty) rats; assay: Von Frey test (mechanical allodynia, pressure threshold)
Protocol: as §1, §2, §3, §4
Mechanical allodynia was assessed using an electronic Von Frey apparatus (EVF3, Bioseb, BP89, Chaville Cedez, France). Rats were placed individually on an elevated iron mesh floor, covered by a transparent plastic cage and were allowed to adapt to the testing environment for at least 15 minutes. The test was done by applying the von Frey filament through the mesh floor to the plantar surface of each hindpaw.
The test was performed three times with approximately 3 min interval between trials. The mean of the three trials was used for data analysis. […]
Von Frey test results are expressed as the percentage of the mean of mechanical threshold obtained from both hindpaws. […]

[3] = system: male ZDF (Zucker Diabetic Fatty) rats; assay: Spontaneous locomotor activity (photocell activity chambers)
Protocol: as §1
as §2, with “monitored. […]” for “monitored.”
it was evaluated using individual photocell activity chambers (Cibertec, Spain). Rats were placed in the recording chambers (55×40 cm, spacing between beams 3 cm) […] after drug administration, and the number of interruptions of photocell beams was recorded over a 30-min period.
Spontaneous locomotor activity is expressed as the percentage of the mean number of crossings of the photocell beams over 30 minutes. […]

[4] = system: Aδ-fibres of ZDF rats; assay: Skin-nerve preparation and electrophysiological recordings (saphenous nerve Aδ-fibres, mechanical stimulation) after chronic treatment
Protocol: as §4
3.2 Skin—Nerve Preparation and Electrophysiological Recordings
In order to minimize pain or discomfort, animals were killed by cervical dislocation. The saphenous nerve and its innervating territory on the hairy hindpaw skin were subcutaneously dissected and excised. […] Neuronal activity was recorded using gold-wire electrodes. Small filaments of the nerve were repeatedly split with sharpened forceps until a single unit activity could be recorded from them. […] Spikes were later analyzed offline using the SPIDI software.
Units were first identified by manual probing of the skin with a blunt glass rod that exerts a pressure of more than 500 mN to search for their receptive field (RF). […] In order to characterize the units, we assessed their conduction velocity (CV) by electrically stimulating the RF with supramaximal square-wave pulses (pulse width, 0.5 ms; train frequency, 0.2 Hz; variable intensity) with a Teflon-coated steel microneurography electrode (shaft diameter 1 mm, bare tip diameter 5-10 μm impedance 1-5 MΩ); an indifferent electrode was placed nearby in the organ bath. […]

[5] = ZDF rats, 25 mg/kg i.p. BID for 14 days (week 13 to 15)
[6] = chronic treatment 25 mg/kg for 14 days, twice a day

Cc1cc(OCCN2CCOCC2)nn1-c1ccc2ccccc2c1 [Example 1, 4-{2-[5-methyl-1-(naphthalen-2-yl)-1H-pyrazol-3-yloxy]ethyl}morpholine hydrochloride]
increase of the latency to hindpaw withdrawal in response to thermal stimulation (plantar test) ([1]; ZDF rats aged 13 weeks, acute 64 mg/kg i.p., 30 minutes before test, mean±SEM, vehicle 12.6±6.9%): 25.5±9.1%
effect on thermal hyperalgesia (plantar test), acute treatment ([1]; ZDF rats aged 13 weeks, hydrochloride): reversed thermal hyperalgesia
effect on thermal hyperalgesia (plantar test), acute treatment ([1]; ZDF rats aged 13 weeks, listed as example 1, hydrochloride): restored baseline values; also recorded: reversed the changes in the thresholds
effect on thermal hyperalgesia (plantar test), chronic treatment [1, 5]: completely reversed
tolerance to the antihyperalgesic effect [1, 6]: No tolerance
effect on mechanical allodynia (Von Frey test), acute treatment ([2]; ZDF rats aged 13 weeks, single 64 mg/kg i.p., compared with week 7 baseline, listed as example 1, hydrochloride, 64 mg/kg): restored baseline values; also recorded: the mechanical allodynia was reversed; also recorded: reversed the changes in the thresholds
effect on mechanical allodynia (Von Frey test), chronic treatment [2, 5]: completely reversed
tolerance to the antiallodynic effect [2, 6]: No tolerance
spontaneous locomotor activity, chronic treatment ([3]; 25 mg/kg i.p. BID for 14 days, vs pretreatment values): no differences
spontaneous locomotor activity, acute treatment ([3]; single 64 mg/kg i.p.): not significantly different
threshold of response to the mechanical stimulation (electrophysiological recording) ([4]; 25 mg/kg i.p. BID for 14 days, vs vehicle-treated ZDF rats): reduced the threshold
hyperreactivity in response to mechanical stimulation in electrophysiological recordings (Aδ-fibres) ([4]; chronic treatment, conclusion): reduction of the hyperreactivity
